Measured values reported in patent US8853203B2, “Diazepinone derivatives” (Novartis AG, priority 2012, dated 2014).
pIC50: −log10 of the molar value.

Experiments:
human mGluR5a receptors = human mGluR5a receptors (Homo sapiens (Human), UniProt P41594); assay: inhibition of glutamate-induced elevation of intracellular calcium in L(tk-) cells expressing human mGluR5a; format: cell-based; conditions: glutamate-induced intracellular calcium elevation, L(tk-) cells expressing human mGluR5a; read-out: mGluR5 IC50
Source text: Activity of compounds of the present invention was examined by determination to what extent the glutamate-induced elevation of the intracellular calcium concentration in L(tk-) cells expressing human mGluR5a receptors (see L. P. Daggett et al., Neuropharm. Vol. 34, pages 871-886, 1995) is inhibited by utilizing methods as described e.g. by L. P. Daggett et al., Neuropharm. Vol. 34, pages 871-886 (1995) and P. J. Flor et al., J. Neurochem. Vol. 67, pages 58-63 (1996).

human mGluR1 = human mGluR1 (Homo sapiens (Human), UniProt Q13255); assay: mGluR1 antagonism, L-glutamate induced intracellular calcium increase (FLIPR) in CHO cells stably expressing human mGluR1; format: cell-based; conditions: for pIC50: L-glutamate induced intracellular calcium, CHO cells expressing human mGluR1, FLIPR
Source text: Activity of compounds of the present invention with respect to mGluR1 antagonism was examined by an assay based on measurements of L-glutamate induced intracellular calcium increases using a 96 well plate-based Fluorometric Imaging Plate Reader (FLIPR), and CHO cells stably expressing human mGluR1. L-glutamate induced robust calcium responses via human mGluR1 in a concentration-dependent manner and in the low micromolar range. The table below represents IC50 values of the inhibition of the glutamate-induced elevation of the intracellular calcium concentration.

Sequence of human mGluR1 (Q13255 19-1194): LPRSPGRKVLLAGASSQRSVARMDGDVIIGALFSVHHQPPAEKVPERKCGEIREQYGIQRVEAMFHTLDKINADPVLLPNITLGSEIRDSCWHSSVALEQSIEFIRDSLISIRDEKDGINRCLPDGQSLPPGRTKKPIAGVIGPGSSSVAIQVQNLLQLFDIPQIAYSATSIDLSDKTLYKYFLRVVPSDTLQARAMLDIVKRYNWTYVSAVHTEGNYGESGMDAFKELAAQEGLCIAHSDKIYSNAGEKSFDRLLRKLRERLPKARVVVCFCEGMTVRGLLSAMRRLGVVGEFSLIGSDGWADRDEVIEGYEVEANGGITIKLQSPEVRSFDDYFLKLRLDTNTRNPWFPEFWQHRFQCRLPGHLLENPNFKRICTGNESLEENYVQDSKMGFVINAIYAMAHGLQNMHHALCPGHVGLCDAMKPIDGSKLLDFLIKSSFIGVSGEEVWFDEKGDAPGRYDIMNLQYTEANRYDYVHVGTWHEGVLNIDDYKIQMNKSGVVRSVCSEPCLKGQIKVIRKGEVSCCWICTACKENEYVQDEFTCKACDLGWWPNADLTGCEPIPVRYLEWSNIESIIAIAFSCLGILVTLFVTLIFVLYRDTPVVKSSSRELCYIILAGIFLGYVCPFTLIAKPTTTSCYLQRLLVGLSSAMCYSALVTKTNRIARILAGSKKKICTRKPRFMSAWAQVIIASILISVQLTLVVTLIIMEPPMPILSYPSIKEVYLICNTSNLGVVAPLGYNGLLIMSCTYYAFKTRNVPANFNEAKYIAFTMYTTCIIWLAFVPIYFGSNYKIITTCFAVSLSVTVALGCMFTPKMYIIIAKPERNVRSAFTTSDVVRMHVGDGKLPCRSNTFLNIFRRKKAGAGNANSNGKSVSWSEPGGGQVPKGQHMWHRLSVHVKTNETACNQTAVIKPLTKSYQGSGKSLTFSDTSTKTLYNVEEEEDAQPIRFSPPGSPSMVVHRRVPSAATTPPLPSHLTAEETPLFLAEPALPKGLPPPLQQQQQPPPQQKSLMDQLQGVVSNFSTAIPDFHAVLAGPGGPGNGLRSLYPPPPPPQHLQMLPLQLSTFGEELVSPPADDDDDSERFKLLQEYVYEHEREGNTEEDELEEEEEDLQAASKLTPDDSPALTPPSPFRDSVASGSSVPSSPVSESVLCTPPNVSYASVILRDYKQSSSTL
Sequence of human mGluR5a receptors (P41594 other isoform, or with tags, fused parts or gaps): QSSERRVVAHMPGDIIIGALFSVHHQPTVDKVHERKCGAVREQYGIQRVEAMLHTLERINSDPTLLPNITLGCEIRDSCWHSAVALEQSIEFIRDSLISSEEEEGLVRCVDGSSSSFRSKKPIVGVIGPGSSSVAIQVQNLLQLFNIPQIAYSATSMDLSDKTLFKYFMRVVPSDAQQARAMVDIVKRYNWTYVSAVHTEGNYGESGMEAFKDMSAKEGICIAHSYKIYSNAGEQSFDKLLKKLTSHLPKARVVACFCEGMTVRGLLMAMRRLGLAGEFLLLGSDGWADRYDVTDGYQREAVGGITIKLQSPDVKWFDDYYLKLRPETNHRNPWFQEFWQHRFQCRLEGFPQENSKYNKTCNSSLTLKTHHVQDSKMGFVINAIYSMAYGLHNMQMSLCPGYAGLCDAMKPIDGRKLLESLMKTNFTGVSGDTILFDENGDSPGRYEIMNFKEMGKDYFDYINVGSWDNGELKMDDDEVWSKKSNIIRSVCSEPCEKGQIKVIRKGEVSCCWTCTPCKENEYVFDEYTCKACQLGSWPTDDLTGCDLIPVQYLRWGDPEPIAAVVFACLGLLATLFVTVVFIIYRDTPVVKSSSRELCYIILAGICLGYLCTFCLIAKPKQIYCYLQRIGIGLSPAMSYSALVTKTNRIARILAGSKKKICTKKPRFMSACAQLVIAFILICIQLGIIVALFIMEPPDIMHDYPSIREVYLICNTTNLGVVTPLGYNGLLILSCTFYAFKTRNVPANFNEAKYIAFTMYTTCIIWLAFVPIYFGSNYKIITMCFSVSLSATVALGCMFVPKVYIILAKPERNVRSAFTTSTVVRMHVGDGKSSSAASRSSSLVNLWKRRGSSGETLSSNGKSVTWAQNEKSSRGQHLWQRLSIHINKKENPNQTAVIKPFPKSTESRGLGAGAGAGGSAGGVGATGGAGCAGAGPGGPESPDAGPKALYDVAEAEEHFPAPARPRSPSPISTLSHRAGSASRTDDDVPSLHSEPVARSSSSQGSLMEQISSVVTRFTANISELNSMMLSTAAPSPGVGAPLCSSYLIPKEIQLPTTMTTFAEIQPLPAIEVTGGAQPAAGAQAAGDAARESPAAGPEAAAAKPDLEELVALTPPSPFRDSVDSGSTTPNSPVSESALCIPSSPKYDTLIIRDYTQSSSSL

Compound | pIC50 (human mGluR5a receptors) | pIC50 (human mGluR1) | inhibition at 10 µM (human mGluR1; CHO)
Cn1ccc(C2=NCC(=O)N3CCc4c(cccc4N4CCOCC4)C3=C2)n1 [Example 24, 2-(1-methyl-1H-pyrazol-3-yl)-9-morpholino-7,8-dihydro-[1,4]diazepino[7,1-a]isoquinolin-5(4H)-one] | 7.46 | < 5.00 | 
Cn1cc(C2=NCC(=O)N3CCc4c(cccc4N4CCOCC4)C3=C2)cn1 [Example 25, 2-(1-methyl-1H-pyrazol-4-yl)-9-morpholino-7,8-dihydro-[1,4]diazepino[7,1-a]isoquinolin-5(4H)-one] | 7.18 | < 5.00 | 
COc1cccc(C2=NCC(=O)N3CCc4c(cccc4C(C)(C)O)C3=C2)c1 [Example 26, 9-(2-hydroxypropan-2-yl)-2-(3-methoxyphenyl)-7,8-dihydro-[1,4]diazepino[7,1-a]isoquinolin-5(4H)-one] | 6.63 | < 5.00 | 
Cn1ccc(C2=NCC(=O)N3CCc4c(cccc4C(C)(C)O)C3=C2)n1 [Example 27, 9-(2-hydroxypropan-2-yl)-2-(1-methyl-1H-pyrazol-3-yl)-7,8-dihydro-[1,4]diazepino[7,1-a]isoquinolin-5(4H)-one] | 6.36 | < 5.00 | 
O=C1CN=C(c2ccco2)C=C2c3cccc(-c4ccncc4)c3CCN12 [Example 28, 2-(furan-2-yl)-9-(pyridin-4-yl)-7,8-dihydro-[1,4]diazepino[7,1-a]isoquinolin-5(4H)-one] | 7.10 | 5.32 | 
O=C1CN=C(c2cccs2)C=C2c3cccc(Br)c3CCN12 [Example 29, 9-bromo-2-(thiophen-2-yl)-7,8-dihydro-[1,4]diazepino[7,1-a]isoquinolin-5(4H)-one] | 7.05 | 8.10 | 
COc1cccc(C2=NCC(=O)N3CCc4c(I)cccc4C3=C2)c1 [Example 30, 9-iodo-2-(3-methoxyphenyl)-7,8-dihydro-[1,4]diazepino[7,1-a]isoquinolin-5(4H)-one] | 6.82 | 5.85 | 
Cn1ccc(C2=NCC(=O)N3CCc4c(I)cccc4C3=C2)n1 [Example 31, 9-iodo-2-(1-methyl-1H-pyrazol-3-yl)-7,8-dihydro-[1,4]diazepino[7,1-a]isoquinolin-5(4H)-one] | 6.78 | 5.89 | 
COc1cc(C2=NCC(=O)N3CCc4c(I)cccc4C3=C2)ccn1 [Example 33, 9-iodo-2-(2-methoxypyridin-4-yl)-7,8-dihydro-[1,4]diazepino[7,1-a]isoquinolin-5(4H)-one] | 7.89 | 5.85 | 
O=C1CN=C(c2ccoc2)C=C2c3cccc(I)c3CCN12 [Example 34, 2-(furan-3-yl)-9-iodo-7,8-dihydro-[1,4]diazepino[7,1-a]isoquinolin-5(4H)-one] | 7.39 | 7.03 | 
CC(C)n1cc(C2=NCC(=O)N3CCc4c(I)cccc4C3=C2)cn1 [Example 35, 9-iodo-2-(1-isopropyl-1H-pyrazol-4-yl)-7,8-dihydro-[1,4]diazepino[7,1-a]isoquinolin-5(4H)-one] | 7.85 | 7.82 | 
Cn1cnc(C2=NCC(=O)N3CCc4c(I)cccc4C3=C2)c1 [Example 36, 9-iodo-2-(1-methyl-1H-imidazol-4-yl)-7,8-dihydro-[1,4]diazepino[7,1-a]isoquinolin-5(4H)-one] | 5.42 | 5.16 | 
COc1cccc2c1CCN1C(=O)CN=C(c3cnc4c(c3)OCCN4C)C=C21 [Example 36a, 9-methoxy-2-(4-methyl-3,4-dihydro-2H-pyrido[3,2-b][1,4]oxazin-7-yl)-7,8-dihydro-[1,4]diazepino[7,1-a]isoquinolin-5(4H)-one] | 5.26 |  | 1%
CCc1cccc2c1CCN1C(=O)CN=C(c3cccc(OC)c3)C=C21 [Example 37, 9-ethyl-2-(3-methoxyphenyl)-7,8-dihydro-[1,4]diazepino[7,1-a]isoquinolin-5(4H)-one] | 7.11 | 5.66 | 
C#Cc1cccc2c1CCN1C(=O)CN=C(c3cccs3)C=C21 [Example 38, 9-ethynyl-2-(thiophen-2-yl)-7,8-dihydro-[1,4]diazepino[7,1-a]isoquinolin-5(4H)-one] | 7.30 | 7.66 | 
N#Cc1cccc2c1CCN1C(=O)CN=C(c3cccs3)C=C21 [Example 39, 5-oxo-2-(thiophen-2-yl)-4,5,7,8-tetrahydro-[1,4]diazepino[7,1-a]isoquinoline-9-carbonitrile] | 6.21 | 5.80 | 

Compound | pIC50 (human mGluR5a receptors) | pIC50 (human mGluR1) | inhibition at 10 µM (human mGluR1; CHO)
Cn1ccc(C2=NCC(=O)N3CCc4c(C#N)cccc4C3=C2)n1 [Example 40, 2-(1-methyl-1H-pyrazol-3-yl)-5-oxo-4,5,7,8-tetrahydro-[1,4]diazepino[7,1-a]isoquinoline-9-carbonitrile] | 5.28 | < 5.00 | 
COc1cccc(C2=NCC(=O)N3CCc4c(cccc4N4CCOCC4)C3=C2)c1 [Example 41, 2-(3-methoxyphenyl)-9-morpholino-7,8-dihydro-[1,4]diazepino[7,1-a]isoquinolin-5(4H)-one] | 7.49 | < 5.00 | 
CC(C)n1cc(C2=NCC(=O)N3CCc4c(cccc4-n4cccn4)C3=C2)cn1 [Example 42, 2-(1-isopropyl-1H-pyrazol-4-yl)-9-(1H-pyrazol-1-yl)-7,8-dihydro-[1,4]diazepino[7,1-a]isoquinolin-5(4H)-one] | 7.49 | 5.47 | 
COc1cccc(C2=NCC(=O)N3CCc4c(CN(C)C)cccc4C3=C2)c1 [Example 43, 9-((dimethylamino)methyl)-2-(3-methoxyphenyl)-7,8-dihydro-[1,4]diazepino[7,1-a]isoquinolin-5(4H)-one] | 6.16 | < 5.00 | 
COCCOCc1cccc2c1CCN1C(=O)CN=C(c3cccc(OC)c3)C=C21 [Example 44, 9-((2-methoxyethoxy)methyl)-2-(3-methoxyphenyl)-7,8-dihydro-[1,4]diazepino[7,1-a]isoquinolin-5(4H)-one] | 5.80 | < 5.00 | 
Cn1ccc(C2=NCC(=O)N3CCc4c(CO)cccc4C3=C2)n1 [Example 45, 9-(hydroxymethyl)-2-(1-methyl-1H-pyrazol-3-yl)-7,8-dihydro-[1,4]diazepino[7,1-a]isoquinolin-5(4H)-one] | 6.15 | < 5.00 | 
Cn1cc(C2=NCC(=O)N3CCc4c(CO)cccc4C3=C2)cn1 [Example 46, 9-(hydroxymethyl)-2-(1-methyl-1H-pyrazol-4-yl)-7,8-dihydro-[1,4]diazepino[7,1-a]isoquinolin-5(4H)-one] | 6.57 | 5.66 | 
COC(C)c1cccc2c1CCN1C(=O)CN=C(c3ccn(C)n3)C=C21 (stereo not shown) [Example 47, 9-(1-methoxyethyl)-2-(1-methyl-1H-pyrazol-3-yl)-7,8-dihydro-[1,4]diazepino[7,1-a]isoquinolin-5(4H)-one] | 7.15 | 5.47 | 
COc1cccc(C2=NCC(=O)N3CCc4c(C(C)=O)cccc4C3=C2)c1 [Example 48, 9-acetyl-2-(3-methoxyphenyl)-7,8-dihydro-[1,4]diazepino[7,1-a]isoquinolin-5(4H)-one] | 7.46 | 5.64 | 
COc1cccc(C2=NCC(=O)N3CCc4c(cccc4-c4ccccc4)C3=C2)c1 [Example 49, 2-(3-methoxyphenyl)-9-phenyl-7,8-dihydro-[1,4]diazepino[7,1-a]isoquinolin-5(4H)-one] | 5.89 | < 5.00 | 
COc1cc(C2=NCC(=O)N3CCc4c(cccc4-c4ccccn4)C3=C2)ccn1 [Example 50, 2-(2-methoxypyridin-4-yl)-9-(pyridin-2-yl)-7,8-dihydro-[1,4]diazepino[7,1-a]isoquinolin-5(4H)-one] | 7.34 | < 5.00 | 
O=C1CN=C(c2ccoc2)C=C2c3cccc(-c4ccncc4)c3CCN12 [Example 51, 2-(furan-3-yl)-9-(pyridin-4-yl)-7,8-dihydro-[1,4]diazepino[7,1-a]isoquinolin-5(4H)-one] | 7.46 | < 5.00 | 
COc1cc(C2=NCC(=O)N3CCc4c(cccc4-c4cnccn4)C3=C2)ccn1 [Example 52, 2-(2-methoxypyridin-4-yl)-9-(pyrazin-2-yl)-7,8-dihydro-[1,4]diazepino[7,1-a]isoquinolin-5(4H)-one] | 7.18 | < 5.00 | 
COc1cc(C2=NCC(=O)N3CCc4c(cccc4-c4ccc(F)nc4)C3=C2)ccn1 [Example 53, 9-(6-fluoropyridin-3-yl)-2-(2-methoxypyridin-4-yl)-7,8-dihydro-[1,4]diazepino[7,1-a]isoquinolin-5(4H)-one] | 8.15 | < 5.00 | 
COc1cc(C2=NCC(=O)N3CCc4c(cccc4-c4ccncc4F)C3=C2)ccn1 [Example 54, 9-(3-fluoropyridin-4-yl)-2-(2-methoxypyridin-4-yl)-7,8-dihydro-[1,4]diazepino[7,1-a]isoquinolin-5(4H)-one] | 7.96 | < 5.00 | 
Cn1cnc(C2=NCC(=O)N3CCc4c(cccc4-c4ccncc4)C3=C2)c1 [Example 55, 2-(1-methyl-1H-imidazol-4-yl)-9-(pyridin-4-yl)-7,8-dihydro-[1,4]diazepino[7,1-a]isoquinolin-5(4H)-one] | 5.31 | < 5.00 | 
